According to patent US20250144094A1 (Erasca, Inc., priority 2021, published 2025):

Target: Recombinant human ULK1 (1-649) (Homo sapiens (Human), UniProt O75385)
Experiment: ULK1 ADP Glo kinase activity assay (MBP substrate)
Conditions: 25° C., 40 minutes, read-out: ULK1 biochemical IC50
Description: Recombinant human ULK1 (1-649) protein expressed in Sf9 insect cells was obtained from SignalChem (Vancouver, BC), catalog #U01-11G. Active kinase was purified via N-terminal GST tag to >85% purity.
ADP GLO Kinase Assay Reagents were obtained from Promega Corp (Madison, WI), catalog #V9104.
MBP (myelin basic protein) substrate, bovine, purified, was obtained from Sigma (St. Louis, MO), catalog #M1891.
ULK1 inhibitor potency was determined using the luminescent ADP Glo Kinase Assay (Promega), a universal ADP detection system that measures kinase activity by quantifying the amount of ADP produced during a kinase reaction. ULK1 kinase reactions are performed in a standard 96-well microplate (20 uL reaction volume) at 25° C. for 40 minutes in the presence or absence of the test compound (12-point dilution series starting at 10 uM). Addition of MBP substrate and ATP initiates the kinase reaction.
The standard ADP Glo assay is performed in two steps. In step one, following the kinase reaction, an equal volume of ADP-Glo™ Reagent (20 uL) is added to terminate the kinase reaction and deplete the remaining ATP. In the second step, the Kinase Detection Reagent (10 uL) is added to simultaneously convert ADP to ATP and allow the newly synthesized ATP to be measured using a luciferase/luciferin reaction. Step two of the ADP Glo assay is performed in a white 384-well plate (20 uL final volume). Thirty minutes after the addition of the Detection reagent, light generated from the luciferase reaction is measured (1 second exposure) using a microplate compatible luminometer (CLARIOstar, BMG Labtech).
Inhibition of ULK1 kinase activity is determined for each test compound by comparison to DMSO only control wells. Inhibitor IC50 was calculated by plotting the change in luminescence after 30 minutes (response) versus inhibitor concentration (in log molar) then applying the four-parameter variable slope curve fit (GraphPad Prism). Inhibition of ULK1 in biochemical assay is found in Table 3.

Chain of Recombinant human ULK1 (1-649) (O75385 1-649): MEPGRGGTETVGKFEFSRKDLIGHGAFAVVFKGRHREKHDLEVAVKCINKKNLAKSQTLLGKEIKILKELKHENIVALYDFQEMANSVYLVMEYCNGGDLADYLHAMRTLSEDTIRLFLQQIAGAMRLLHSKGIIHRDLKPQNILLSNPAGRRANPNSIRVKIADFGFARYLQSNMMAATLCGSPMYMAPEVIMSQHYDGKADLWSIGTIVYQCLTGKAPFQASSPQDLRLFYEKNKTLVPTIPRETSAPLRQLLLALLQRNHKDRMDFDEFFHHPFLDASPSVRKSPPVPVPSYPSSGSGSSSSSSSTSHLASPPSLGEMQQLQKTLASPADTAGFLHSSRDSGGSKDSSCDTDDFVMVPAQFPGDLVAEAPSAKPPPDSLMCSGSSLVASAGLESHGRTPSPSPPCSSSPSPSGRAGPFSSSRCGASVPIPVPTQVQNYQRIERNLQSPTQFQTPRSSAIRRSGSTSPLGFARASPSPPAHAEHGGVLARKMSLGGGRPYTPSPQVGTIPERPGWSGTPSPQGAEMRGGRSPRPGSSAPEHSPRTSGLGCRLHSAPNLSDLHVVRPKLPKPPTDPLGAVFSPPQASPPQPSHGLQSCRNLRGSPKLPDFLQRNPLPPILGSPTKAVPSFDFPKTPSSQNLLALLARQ

`CS(=O)(=O)N1CCc2sc(-c3nc(Nc4cc5c(cc4Cl)CNCC5)ncc3C(F)(F)F)cc2C1=O` [Example 44, 2-(2-((7-chloro-1,2,3,4-tetrahydroisoquinolin-6-yl)amino)-5-(trifluoromethyl)pyrimidin-4-yl)-5-(methylsulfonyl)-6,7-dihydrothieno[3,2-c]pyridin-4(5H)-one] and `CN1CCCc2sc(-c3nc(Nc4cc5c(cc4Cl)CNCC5)ncc3C(F)(F)F)cc2C1=O` [Example 47, 2-(2-((7-chloro-1,2,3,4-tetrahydroisoquinolin-6-yl)amino)-5-(trifluoromethyl)pyrimidin-4-yl)-5-methyl-5,6,7,8-tetrahydro-4H-thieno[3,2-c]azepin-4-one] cannot be ordered by IC50: at most 10 nM for the first, at most 10 nM for the second.

`Cc1sc(-c2nc(Nc3cc4c(cc3Cl)CNCC4)ncc2C(F)(F)F)cc1C(N)=O` [Example 45, 5-(2-((7-chloro-1,2,3,4-tetrahydroisoquinolin-6-yl)amino)-5-(trifluoromethyl)pyrimidin-4-yl)-2-methylthiophene-3-carboxamide] and `CCS(=O)(=O)c1csc(-c2nc(Nc3cc4c(cc3Cl)CNCC4)ncc2C(F)(F)F)c1` [Example 51, 7-chloro-N-(4-(4-(ethylsulfonyl)thiophen-2-yl)-5-(trifluoromethyl)pyrimidin-2-yl)-1,2,3,4-tetrahydroisoquinolin-6-amine] cannot be ordered by IC50: at most 10 nM for the first, at most 10 nM for the second.

`O=C1NCCCc2sc(-c3nc(Nc4cc5c(cc4Cl)CCNC5)ncc3C(F)(F)F)cc21` [Example 46, 2-(2-((6-chloro-1,2,3,4-tetrahydroisoquinolin-7-yl)amino)-5-(trifluoromethyl)pyrimidin-4-yl)-5,6,7,8-tetrahydro-4H-thieno[3,2-c]azepin-4-one] and `CN1CCc2cc(Cl)c(Nc3ncc(C(F)(F)F)c(-c4cc5c(s4)CCCNC5=O)n3)cc2C1` [Example 49, 2-(2-((6-chloro-2-methyl-1,2,3,4-tetrahydroisoquinolin-7-yl)amino)-5-(trifluoromethyl)pyrimidin-4-yl)-5,6,7,8-tetrahydro-4H-thieno[3,2-c]azepin-4-one] cannot be ordered by IC50: at most 10 nM for the first, at most 10 nM for the second.

`CN1CCC(n2cc(Nc3ncc(C(F)(F)F)c(-c4cc5c(s4)CCNC5=O)n3)c(C3CC3)n2)CC1` [Example 48, 2-(2-((3-cyclopropyl-1-(1-methylpiperidin-4-yl)-1H-pyrazol-4-yl)amino)-5-(trifluoromethyl)pyrimidin-4-yl)-6,7-dihydrothieno[3,2-c]pyridin-4(5H)-one] and `O=C1NCCNc2sc(-c3nc(Nc4cc5c(cc4Cl)CNCC5)ncc3C(F)(F)F)cc21` [Example 53, 7-(2-((7-chloro-1,2,3,4-tetrahydroisoquinolin-6-yl)amino)-5-(trifluoromethyl)pyrimidin-4-yl)-1,2,3,4-tetrahydro-5H-thieno[2,3-e][1,4]diazepin-5-one] cannot be ordered by IC50: at most 10 nM for the first, at most 10 nM for the second.

Going from `Cc1nc(=O)c2cc(-c3nc(Nc4cc5c(cc4Cl)CNCC5)ncc3C(F)(F)F)sc2[nH]1` [Example 50, 6-(2-((7-chloro-1,2,3,4-tetrahydroisoquinolin-6-yl)amino)-5-(trifluoromethyl)pyrimidin-4-yl)-2-methylthieno[2,3-d]pyrimidin-4(1H)-one] to `COCCS(=O)(=O)c1csc(-c2nc(Nc3cc4c(cc3Cl)CNCC4)ncc2C(F)(F)F)c1` [Example 52, 7-chloro-N-(4-(4-((2-methoxyethyl)sulfonyl)thiophen-2-yl)-5-(trifluoromethyl)pyrimidin-2-yl)-1,2,3,4-tetrahydroisoquinolin-6-amine], the IC50 falls from over 500 nM to at most 10 nM. The second is the more potent here.

`O=S(=O)(CCN1CCOCC1)c1csc(-c2nc(Nc3cc4c(cc3Cl)CNCC4)ncc2C(F)(F)F)c1` [Example 54, 7-chloro-N-(4-(4-((2-morpholinoethyl)sulfonyl)thiophen-2-yl)-5-(trifluoromethyl)pyrimidin-2-yl)-1,2,3,4-tetrahydroisoquinolin-6-amine] gave an IC50 of 100 to 500 nM.
